Target: T1, human recombinant HDAC6 (Homo sapiens, UniProt Q9UBN7)
T1 construct: purchased Calbiochem 382180
T1 sequence (Q9UBN7 1-1215): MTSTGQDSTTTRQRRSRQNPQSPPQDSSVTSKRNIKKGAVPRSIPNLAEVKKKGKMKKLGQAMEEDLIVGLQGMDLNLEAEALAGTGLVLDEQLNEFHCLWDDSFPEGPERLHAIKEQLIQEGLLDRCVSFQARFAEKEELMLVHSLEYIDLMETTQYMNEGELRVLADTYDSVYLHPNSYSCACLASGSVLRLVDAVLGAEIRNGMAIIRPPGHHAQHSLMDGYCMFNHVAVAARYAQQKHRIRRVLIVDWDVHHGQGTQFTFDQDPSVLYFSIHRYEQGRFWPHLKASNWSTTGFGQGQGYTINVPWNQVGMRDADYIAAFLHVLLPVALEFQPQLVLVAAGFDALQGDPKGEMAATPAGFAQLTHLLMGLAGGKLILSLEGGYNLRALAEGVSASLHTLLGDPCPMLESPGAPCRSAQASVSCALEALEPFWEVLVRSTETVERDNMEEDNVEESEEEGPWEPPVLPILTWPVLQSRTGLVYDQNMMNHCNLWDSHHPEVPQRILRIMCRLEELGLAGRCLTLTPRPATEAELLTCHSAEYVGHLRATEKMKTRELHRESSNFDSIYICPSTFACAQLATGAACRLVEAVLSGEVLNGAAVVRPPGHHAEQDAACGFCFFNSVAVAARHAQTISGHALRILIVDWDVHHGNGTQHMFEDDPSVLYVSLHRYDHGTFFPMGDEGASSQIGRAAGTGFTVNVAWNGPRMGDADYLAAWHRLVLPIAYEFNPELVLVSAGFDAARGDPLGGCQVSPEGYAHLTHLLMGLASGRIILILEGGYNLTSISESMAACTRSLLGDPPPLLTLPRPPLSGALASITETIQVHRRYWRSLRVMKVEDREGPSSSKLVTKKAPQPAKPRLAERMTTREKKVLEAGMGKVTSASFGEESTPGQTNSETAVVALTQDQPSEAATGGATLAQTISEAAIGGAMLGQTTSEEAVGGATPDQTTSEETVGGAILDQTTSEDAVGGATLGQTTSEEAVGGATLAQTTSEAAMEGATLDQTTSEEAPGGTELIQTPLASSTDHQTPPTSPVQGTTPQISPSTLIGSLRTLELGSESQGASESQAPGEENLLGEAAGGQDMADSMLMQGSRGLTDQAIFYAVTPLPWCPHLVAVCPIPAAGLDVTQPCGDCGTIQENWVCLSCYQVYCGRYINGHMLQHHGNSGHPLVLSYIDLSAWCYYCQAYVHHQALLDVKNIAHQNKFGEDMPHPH
Test: HDAC6 enzyme activity inhibition assay (HDAC Fluorimetric Drug Discovery Kit)
Format: biochemical
Details: for HDAC6 selectivity (fold): HDAC1 vs HDAC6; for IC50: same protocol as the HDAC1 enzyme activity test
Description: In order to examine the HDAC6 selectivity of the compounds of formula I of the present invention by HDAC1 and HDAC6 enzymatic activity inhibition assays, an experiment was performed using a conventional substance as a control.
HDAC enzyme activity was measured using a HDAC Fluorimetric Drug Discovery Kit (BML-AK511, 516, Enzo Life Science). For the HDAC1 enzyme activity test, human recombinant HDAC1 (BML-SE456) was used as an enzyme source, and Fluor de Lys®-“SIRT1 (BNL-KI177) was used as a substrate. A 5-fold dilution of the compound was seeded into a 96-well plate, and then 0.3 μg of the enzyme and 10 μM of the substrate were added to each well of the plate and allowed to react at 30° C. for 60 minutes. Then, Fluor de Lys®-Developer II (BML-KI176) was added thereto and allowed to react for 30 minutes, after which the fluorescence value (Ex 360, Em 460) was measured using a multi-plate reader (Flexstation 3, Molecular Device). The HDAC6 enzyme was tested using human recombinant HDAC6 (382180) (Calbiochem) according to the same protocol as the HDAC1 enzyme activity test method. Based on the resulting values, each IC50 value was calculated using GraphPad Prism4.0 program.

In the case of `CS(=O)(=O)N(Cc1ccc(-c2nnc(C(F)F)o2)cc1F)c1cccc(F)c1` [Compound 11182, N-(4-(5-(difluoromethyl)-1,3,4-oxadiazol-2-yl)-2-fluorobenzyl)-N-(3-fluorophenyl)methanesulfonamide], the “HDAC6 selectivity (fold)” value is reported as 5882 fold and the IC50 is reported as 17 nM.

In the case of `CS(=O)(=O)N(Cc1ccc(-c2nnc(C(F)(F)F)o2)c(F)c1)c1ccccc1` [Compound 11183, N-(3-fluoro-4-(5-(trifluoromethyl)-1,3,4-oxadiazol-2-yl)benzyl)-N-phenylmethanesulfonamide], the “HDAC6 selectivity (fold)” value is reported as 426 fold and the IC50 is reported as 235 nM.

In the case of `CS(=O)(=O)N(Cc1ccc(-c2nnc(C(F)F)o2)cc1)Cc1ccc(-c2nnc(C(F)F)o2)cc1` [Compound 11186, N,N-bis(4-(5-(difluoromethyl)-1,3,4-oxadiazol-2-yl)benzyl)methanesulfonamide], the “HDAC6 selectivity (fold)” value is reported as 433 fold and the IC50 is reported as 231 nM.

`CS(=O)(=O)N(Cc1ccc(-c2nnc(C(F)F)o2)cc1F)c1cccc(Cl)c1` [Compound 11191, N-(3-chlorophenyl)-N-(4-(5-(difluoromethyl)-1,3,4-oxadiazol-2-yl)-2-fluorobenzyl)methanesulfonamide] was tested, and the “HDAC6 selectivity (fold)” value was 5000 fold and the IC50 was 20 nM.

For `COc1ccc(N(Cc2ccc(-c3nnc(C(F)F)o3)cc2F)S(C)(=O)=O)cc1` [Compound 11193, N-(4-(5-(difluoromethyl)-1,3,4-oxadiazol-2-yl)-2-fluorobenzyl)-N-(4-methoxyphenyl)methanesulfonamide], the “HDAC6 selectivity (fold)” value was 3704 fold and the IC50 was 27 nM.

In the case of `CS(=O)(=O)N(Cc1ccc(-c2nnc(C(F)(F)F)o2)cc1F)c1cncnc1` [Compound 11194, N-(2-fluoro-4-(5-(trifluoromethyl)-1,3,4-oxadiazol-2-yl)benzyl)-N-(pyrimidin-5-yl)methanesulfonamide], the “HDAC6 selectivity (fold)” value is reported as 1538 fold and the IC50 is reported as 65 nM.

With `CS(=O)(=O)N(Cc1ccc(-c2nnc(C(F)F)o2)cc1F)c1cncnc1` [Compound 11195, N-(4-(5-(difluoromethyl)-1,3,4-oxadiazol-2-yl)-2-fluorobenzyl)-N-(pyrimidin-5-yl)methanesulfonamide] the “HDAC6 selectivity (fold)” value was 1563 fold and the IC50 was 64 nM.

`CS(=O)(=O)N(Cc1ccc(-c2nnc(C(F)F)o2)cc1F)c1cccc(Br)c1` [Compound 11197, N-(3-bromophenyl)-N-(4-(5-(difluoromethyl)-1,3,4-oxadiazol-2-yl)-2-fluorobenzyl)methanesulfonamide] was tested, and the “HDAC6 selectivity (fold)” value was 6667 fold and the IC50 was 15 nM.

`CS(=O)(=O)N(Cc1ccc(-c2nnc(C(F)F)o2)cn1)c1cccc(F)c1` [Compound 11217, N-((5-(5-(difluoromethyl)-1,3,4-oxadiazol-2-yl)pyridin-2-yl)methyl)-N-(3-fluorophenyl)methanesulfonamide] was tested, and the “HDAC6 selectivity (fold)” value was 7692 fold and the IC50 was 13 nM.

In the case of `CS(=O)(=O)N(Cc1ccc(-c2nnc(C(F)(F)F)o2)cc1F)c1ccccc1C(F)(F)F` [Compound 11218, N-(2-fluoro-4-(5-(trifluoromethyl)-1,3,4-oxadiazol-2-yl)benzyl)-N-(2-(trifluoromethyl)phenyl)methanesulfonamide], the “HDAC6 selectivity (fold)” value is reported as 429 fold and the IC50 is reported as 233 nM.

With `CS(=O)(=O)N(Cc1ccc(-c2nnc(C(F)F)o2)cc1F)c1ccccc1C(F)(F)F` [Compound 11219, N-(4-(5-(difluoromethyl)-1,3,4-oxadiazol-2-yl)-2-fluorobenzyl)-N-(2-(trifluoromethyl)phenyl)methanesulfonamide] the “HDAC6 selectivity (fold)” value was 1064 fold and the IC50 was 94 nM.

For `CS(=O)(=O)N(Cc1ccc(-c2nnc(C(F)F)o2)cc1F)c1ccc(C(F)(F)F)cc1` [Compound 11221, N-(4-(5-(difluoromethyl)-1,3,4-oxadiazol-2-yl)-2-fluorobenzyl)-N-(4-(trifluoromethyl)phenyl)methanesulfonamide], the “HDAC6 selectivity (fold)” value was 990 fold and the IC50 was 101 nM.

`CCCCN(Cc1ccc(-c2nnc(C(F)(F)F)o2)cc1)S(C)(=O)=O` [Compound 11222, N-butyl-N-(4-(5-(trifluoromethyl)-1,3,4-oxadiazol-2-yl)benzyl)methanesulfonamide] was tested, and the “HDAC6 selectivity (fold)” value was 243 fold and the IC50 was 412 nM.

With `O=S(=O)(c1cccnc1)N(Cc1ccc(-c2nnc(C(F)F)o2)cc1F)c1cccc(F)c1` [Compound 11225, N-(4-(5-(difluoromethyl)-1,3,4-oxadiazol-2-yl)-2-fluorobenzyl)-N-(3-fluorophenyl)pyridine-3-sulfonamide] the “HDAC6 selectivity (fold)” value was 4167 fold and the IC50 was 24 nM.

For `CS(=O)(=O)N(Cc1ccc(-c2nnc(C(F)F)o2)cc1F)c1ccc2c(c1)OCO2` [Compound 11227, N-(benzo[d][1,3]dioxol-5-yl)-N-(4-(5-(difluoromethyl)-1,3,4-oxadiazol-2-yl)-2-fluorobenzyl)methanesulfonamide], the “HDAC6 selectivity (fold)” value was 4348 fold and the IC50 was 23 nM.

With `O=S(=O)(C1CCCCC1)N(Cc1ccc(-c2nnc(C(F)F)o2)cc1F)c1ccccc1` [Compound 11229, N-(4-(5-(difluoromethyl)-1,3,4-oxadiazol-2-yl)-2-fluorobenzyl)-N-phenylcyclohexanesulfonamide] the “HDAC6 selectivity (fold)” value was 1176 fold and the IC50 was 85 nM.

With `CCC(C)S(=O)(=O)N(Cc1ccc(-c2nnc(C(F)F)o2)cc1F)c1ccccc1` (stereo not shown) [Compound 11230, N-(4-(5-(difluoromethyl)-1,3,4-oxadiazol-2-yl)-2-fluorobenzyl)-N-phenylbutane-2-sulfonamide] the “HDAC6 selectivity (fold)” value was 3030 fold and the IC50 was 33 nM.

With `COC(=O)CS(=O)(=O)N(Cc1ccc(-c2nnc(C(F)F)o2)cc1F)c1ccccc1` [Compound 11231, methyl 2-(N-(4-(5-(difluoromethyl)-1,3,4-oxadiazol-2-yl)-2-fluorobenzyl)-N-phenylsulfamoyl)acetate] the “HDAC6 selectivity (fold)” value was 4545 fold and the IC50 was 22 nM.

For `Cc1ccccc1N(Cc1ccc(-c2nnc(C(F)(F)F)o2)cc1F)S(C)(=O)=O` [Compound 11248, N-(2-fluoro-4-(5-(trifluoromethyl)-1,3,4-oxadiazol-2-yl)benzyl)-N-(o-tolyl)methanesulfonamide], the “HDAC6 selectivity (fold)” value was 893 fold and the IC50 was 112 nM.

With `Cc1ccccc1N(Cc1ccc(-c2nnc(C(F)F)o2)cc1F)S(C)(=O)=O` [Compound 11249, N-(4-(5-(difluoromethyl)-1,3,4-oxadiazol-2-yl)-2-fluorobenzyl)-N-(o-tolyl)methanesulfonamide] the “HDAC6 selectivity (fold)” value was 2703 fold and the IC50 was 37 nM.

In the case of `COc1ccccc1N(Cc1ccc(-c2nnc(C(F)(F)F)o2)cc1F)S(C)(=O)=O` [Compound 11250, N-(2-fluoro-4-(5-(trifluoromethyl)-1,3,4-oxadiazol-2-yl)benzyl)-N-(2-methoxyphenyl)methanesulfonamide], the “HDAC6 selectivity (fold)” value is reported as 1000 fold and the IC50 is reported as 100 nM.

In the case of `COc1ccccc1N(Cc1ccc(-c2nnc(C(F)F)o2)cc1F)S(C)(=O)=O` [Compound 11251, N-(4-(5-(difluoromethyl)-1,3,4-oxadiazol-2-yl)-2-fluorobenzyl)-N-(2-methoxyphenyl)methanesulfonamide], the “HDAC6 selectivity (fold)” value is reported as 1563 fold and the IC50 is reported as 64 nM.

In the case of `O=S(=O)(c1cccnc1)N(Cc1ccc(-c2nnc(C(F)F)o2)cc1F)c1ccccc1` [Compound 11252, N-(4-(5-(difluoromethyl)-1,3,4-oxadiazol-2-yl)-2-fluorobenzyl)-N-phenylpyridine-3-sulfonamide], the “HDAC6 selectivity (fold)” value is reported as 2564 fold and the IC50 is reported as 39 nM.
